Data: PMC5073322, “Novel Natural Product-like Caged Xanthones Bearing a Carbamate Moiety Exhibit Antitumor Potency and Anti-Angiogenesis Activity In vivo” (Scientific Reports, 2016)
Values after ≈ are worked out from the molar mass of the structure shown. Read-outs that look alike come from different tables or passages of the source.

Assays:
A549/taxol = assay: MTT antiproliferative assay, Taxol-resistant A549; format: cell-based
Procedure: (§2) The inhibition of tumour cell growth was measured by a modified tetrazolium (MTT) salt assay, as previously described[39]. Cells were cultured in a 96-well plate and treated with culture medium alone or different concentrations of the compounds. The cells were incubated for 72 h, and then, the MTT assay reagent was added. After a 4 h incubation, the formazan product was quantitated at 570 nm. The IC50 values (the concentrations that gave rise to 50% inhibition of cell viability) were calculated using GraphPad Prism 6 using a variable slope (four parameters).

A549/cisplatin = assay: MTT antiproliferative assay, cisplatin-resistant A549; format: cell-based
Procedure: as §2

Water solubility by HPLC = format: physicochemical; conditions: for solubility: thermodynamic from solid
Text: The physicochemical characteristics of compounds directly determine their potential drug-like properties. Assessing a compound’s physicochemical properties before performing in vivo evaluations can guide further studies and minimize the time and cost associated with drug discovery. Therefore, parallel to the in vivo study, these solubilities of these compounds in water were experimentally measured using high-performance liquid chromatography (HPLC). Based on the results of full wave scanning, 290 nm was chosen as the maximum absorption wavelength for HPLC detection.
(§1) A HPLC system with an ultraviolet (UV) detector was used to detect the solubility of the compounds. The optimal wavelength was 290 nm. Ethanol/water (85:15) was an efficient eluent at a flow rate of 0.5 mL/min. The compounds were stirred in deionized water overnight to maximize the retention of the compounds in solution. Then, the solutions were filtered and the supernatant was used as a fluid sample for HPLC detection. The permeability (Pe) of some of the compounds was tested with the help of a standard PAMPA (pION), as previously reported. PAMPA was performed on a PAMPA Explorer instrument (pION, Inc., Woburn, MA) with the PAMPA Explorer command software (Version 3.7.4.1). The compounds were diluted to 10 mM with the system solution buffer (pH 7.4). Then, 150 μL of the diluted compound solution was transferred to a UV plate, and the UV spectrum was collected and used as a reference. Then, paint the membrane with 5 μL of gastrointestinal tract (GIT) lipid. The acceptor chamber was filled with 200 μL of acceptor solution buffer, and the donor chamber was filled with 200 μL of diluted compound solution. The PAMPA sandwich was assembled and left at 25 °C for 4 h. The UV spectra (240–500 nm) from the donor and the acceptor were collected. The permeability coefficient was calculated with the PAMPA Explorer Command software (Version 3.7.4.1) based on the area under the curve (AUC) of the reference plate, the donor plate, and the acceptor plate. The permeability coefficient of the compound was tested for four times, and the data are shown as the average values. Ketoprofen (4.5×10^−6 cm/s) and propranolol (112.8×10^−6 cm/s) were used as the standards in this assay.

[1] = Parallel artificial membrane permeability assay (PAMPA); format: in vitro ADME; conditions: for permeability relative to DDO-6101 and GA: PAMPA, different pH values (Fig. 5); for permeability coefficient (Pe): PAMPA standards, 25 °C, 4 h
Procedure: Permeability is another important property that reflects the ability of molecules to diffuse through cell membranes. The permeability coefficients were determined using a standard parallel artificial membrane permeability assay (PAMPA) on a PAMPA Explorer instrument (Pion, Inc., MA, USA)[34].
as §1, with “The compounds were diluted to 10 mM with the system solution buffer (pH 7.4).” left out

A549 = assay: MTT antiproliferative assay, A549
Procedure: as §2

HepG2 = assay: MTT antiproliferative assay, HepG2; conditions: read-out: IC50 HepG2
HCT116 = assay: MTT antiproliferative assay, HCT116
MDA-MB-231 = assay: MTT antiproliferative assay, MDA-MB-231
Procedure: as §2

[2] = MTT, 72 h; Taxol-resistant A549; read-out: IC50 A549/taxol
[3] = Homo sapiens, MTT, 72 h, read-out: IC50 A549/cisplatin
[4] = deionized water, stirred overnight, HPLC 290 nm, read-out: S, water solubility
[5] = Homo sapiens, A549, 72 h, read-out: IC50 A549
[6] = Homo sapiens, HCT-116, 72 h, read-out: IC50 HCT116
[7] = Homo sapiens, MDA-MB-231, 72 h, read-out: IC50 MDA-MB-231
[8] = read-out: IC50 A549/taxol; MTT, 72 h; Taxol-resistant A549
[9] = deionized water, stirred overnight, HPLC 290 nm
[10] = Homo sapiens, A549, 72 h, read-out: IC50 A549, MTT, 72 h
[11] = read-out: IC50 HCT116, MTT, 72 h
[12] = Homo sapiens, MDA-MB-231, 72 h, read-out: IC50 MDA-MB-231, MTT, 72 h
[13] = read-out: IC50 A549/cisplatin, MTT, 72 h

Compound	IC50 (A549/taxol; [2]) [µM]	IC50 (A549/cisplatin; [3]) [µM]	solubility (Water solubility by HPLC; [4]) [µM]	IC50 (A549; [5]) [µM]	IC50 (HepG2; Homo sapiens, HepG2, 72 h) [µM]	IC50 (HCT116; [6]) [µM]	IC50 (MDA-MB-231; [7]) [µM]	IC50 (A549/taxol; [8]) [µM]	S, water solubility (Water solubility by HPLC; [9]) [µM]	IC50 (HepG2; MTT, 72 h) [µM]	further results
CC(C)=CCC12OC(C)(C)C3CC(C=C4C(=O)c5c(OC(=O)N6CCSC6)cccc5OC431)C2=O (stereo not drawn) [Compound 8i]	0.82 ± 0.08	1.8 ± 0.1	20 (≈ 9.91 µg/mL)	3.38 ± 0.02	1.61 ± 0.18	1.08 ± 0.02	1 ± 0.1				permeability relative to DDO-6101 and GA [1]: improved the permeability
CC(C)=CCC12OC(C)(C)C3CC(C=C4C(=O)c5c(OC(=O)N(CCO)CCO)cccc5OC431)C2=O (stereo not drawn) [Compound 8j]	4.25 ± 0.7	3.78 ± 0.11	60 (≈ 30.7 µg/mL)	10.24 ± 0.1	5.21 ± 0.01	4.14 ± 0.05	6.2 ± 0.11				
CC(C)=CCC12OC(C)(C)C3CC(C=C4C(=O)c5c(OC(=O)N(C(C)C)C(C)C)cccc5OC431)C2=O (stereo not drawn) [Compound 8k]	6.72 ± 0.53	2 ± 0.47	30 (≈ 15.2 µg/mL)	8.96 ± 0.9	4.76 ± 0.22	4.49 ± 0.77	9.1 ± 0.12				
CC(C)=CCC12OC(C)(C)C3CC(C=C4C(=O)c5c(OC(=O)N6CCC(N7CCCCC7)CC6)cccc5OC431)C2=O (stereo not drawn) [Compound 8l]								0.61 ± 0.04	80	0.34 ± 0.27	fold higher activity against the resistant A549 cell line than A549 (A549/taxol; Taxol-resistant and cisplatin-resistant A549 versus A549): 10–15 fold; IC50 (A549/cisplatin; Homo sapiens, A549, 72 h, read-out: IC50 A549/cisplatin, MTT, 72 h): 0.98 ± 0.13 µM; permeability relative to DDO-6101 and GA [1]: improved the permeability; IC50 (A549; [10]): 10.1 ± 2.1 µM; IC50 (HCT116; [11]): 2.49 ± 0.33 µM; IC50 (MDA-MB-231; [12]): 0.88 ± 0.05 µM
CC(C)=CCC12OC(C)(C)C3CC(C=C4C(=O)c5c(OC(=O)N6CCN(C)CC6)cccc5OC431)C2=O (stereo not drawn) [Compound 8m]								1.1 ± 0.05	640	1.36 ± 0.71	IC50 (A549/cisplatin; [13]): 0.38 ± 0.07 µM; IC50 (A549; [10]): 9.97 ± 2.46 µM; IC50 (HCT116; Homo sapiens, HCT-116, 72 h, read-out: IC50 HCT116, MTT, 72 h): 8.15 ± 0.7 µM; IC50 (MDA-MB-231; [12]): 0.76 ± 0.09 µM
CC(C)=CCC12OC(C)(C)C3CC(C=C4C(=O)c5c(OC(=O)N6CCN(C)CC6)cccc5OC431)C2=O (stereo not drawn) [Compound 8o]								0.51 ± 0.05	>40000	2.8 ± 0.21	IC50 (A549/cisplatin; [13]): 1.14 ± 0.14 µM; IC50 (A549; read-out: IC50 A549, MTT, 72 h): 14.9 ± 3.6 µM; IC50 (HCT116; [11]): 9.82 ± 0.68 µM; IC50 (MDA-MB-231; read-out: IC50 MDA-MB-231, MTT, 72 h): 0.66 ± 0.07 µM
COc1cccc2c1C(=O)c1c(O)c3c(c(O)c1C2=O)C[C@@](O)(C(=O)CO)C[C@@H]3O[C@H]1C[C@H](N)[C@H](O)[C@H](C)O1 [Doxorubicin, reference compound]	0.24 ± 0.02	0.19 ± 0.02		0.17 ± 0.02	0.28 ± 0.01	0.4 ± 0.04	0.49 ± 0.05				
CC(C)=CCC[C@]1(C)C=Cc2c(O)c3c(c(CC=C(C)C)c2O1)O[C@]12C(=C[C@@H]4C[C@H]1C(C)(C)O[C@@]2(C/C=C(/C)C(=O)O)C4=O)C3=O [GA, gambogic acid, reference compound]	0.29 ± 0.04	2.5 ± 0.06		2.02 ± 0.02	2.08 ± 0.07	0.34 ± 0.08	1.5 ± 0.05				solubility (Water solubility by HPLC; water): < 5 µM
CC(C(=O)O)c1cccc(C(=O)c2ccccc2)c1 (stereo not drawn) [Ketoprofen, reference compound]											permeability coefficient (Pe) [1]: 4.5 ×10⁻⁶ cm/s
CC(C)NCC(O)COc1cccc2ccccc12 (stereo not drawn) [propranolol, reference compound]											permeability coefficient (Pe) [1]: 112.8 ×10⁻⁶ cm/s
